We go through seven molecules from ChEMBL document CHEMBL1127988, “Differential binding and dopamine uptake activity of cocaine analogues modified at nitrogen” (Bioorg Med Chem Lett, 1994).

Experiment [1] addresses Sodium-dependent dopamine transporter (Rattus norvegicus, UniProt P23977). Nature of the experiment: Binding affinity to inhibit [3H]mazindol binding in rat corpus striatum P2 synaptosomes. Type of experiment: subcellular.
For experiment [2], the species on record is Rattus norvegicus. The experiment can be described thus: Inhibitory activity towards [3H]dopamine uptake in rat corpus striatum P2 synaptosomes. Type of experiment: functional.
For experiment [3], the target named is Sodium-dependent dopamine transporter (Rattus norvegicus) (UniProt P23977). Particulars: Corpus striatum; 1111 uM.
Chain of Sodium-dependent dopamine transporter (Rattus norvegicus) (P23977 whole entry): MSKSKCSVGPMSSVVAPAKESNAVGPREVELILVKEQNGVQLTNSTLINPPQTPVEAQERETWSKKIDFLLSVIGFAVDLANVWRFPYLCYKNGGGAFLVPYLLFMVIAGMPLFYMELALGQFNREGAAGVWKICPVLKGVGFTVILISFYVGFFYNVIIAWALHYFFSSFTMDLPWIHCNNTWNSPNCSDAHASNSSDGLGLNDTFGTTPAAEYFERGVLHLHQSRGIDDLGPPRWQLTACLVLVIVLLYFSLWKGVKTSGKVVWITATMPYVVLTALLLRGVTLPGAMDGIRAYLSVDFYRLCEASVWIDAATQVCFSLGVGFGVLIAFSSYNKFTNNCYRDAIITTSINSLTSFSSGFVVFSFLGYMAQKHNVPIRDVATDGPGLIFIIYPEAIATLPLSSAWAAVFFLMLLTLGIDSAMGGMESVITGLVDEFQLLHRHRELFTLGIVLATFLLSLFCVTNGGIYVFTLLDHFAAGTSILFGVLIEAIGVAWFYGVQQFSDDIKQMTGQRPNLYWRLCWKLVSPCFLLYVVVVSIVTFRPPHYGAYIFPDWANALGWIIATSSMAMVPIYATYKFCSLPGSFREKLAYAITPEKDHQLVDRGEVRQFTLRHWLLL
Description: Maximum percent inhibition of [3H]mazindol binding in rat corpus striatum P2 synaptosome at 1111 uM
Experiment [4] shares this target. The experiment can be described thus: Maximum percent inhibition of [3H]mazindol binding in rat corpus striatum P2 synaptosome at 1000 uM. Type of experiment: tissue-based.
Experiment [5] is filed under the species Rattus norvegicus. The experiment can be described thus: Maximum percent inhibition of dopamine uptake in rat corpus striatum P2 synaptosome at 1000 uM. Type of experiment: functional.

Chain of Sodium-dependent dopamine transporter (P23977 whole entry): as above

As for `COC(=O)C1C(OC(=O)c2ccccc2)CC2CCC1N2CC(=O)O` (centres undefined), the Ki in experiment [1] stood at 0.38 µM; in the experiment listed under Rattus norvegicus [2], 2.1 µM.

Take `O=C(OC1CC2CCC3C1C(=O)NN23)c1ccccc1` (centres undefined): the figures for the Ki (in experiment [1]; in the experiment filed under Rattus norvegicus [2]) were 44.9 µM and 115 µM, respectively. The molecule further returned an inhibition in experiment [3] of 83%.

Turning to `COC(=O)C1C(OC(=O)c2ccccc2)CC2CCC1N2[N+](=O)[O-]` (centres undefined), the Ki in experiment [1] came out at 7.5 µM; in the experiment listed under Rattus norvegicus [2], 21.2 µM.

`COC(=O)C1C(OC(=O)c2ccccc2)CC2CCC1N2N=O` (centres undefined): the Ki was 99.5 µM in experiment [1] and 232 µM in the experiment listed under Rattus norvegicus [2]. The inhibition in experiment [4] came out at 82%; in the experiment filed under Rattus norvegicus [5] it was 77%.

On to `COC(=O)C1C(OC(=O)c2ccccc2)CC2CCC1N2NC(C)=O` (centres undefined), for which the Ki (in experiment [1]; in the experiment filed under Rattus norvegicus [2]) was greater than 1000 µM each time. The inhibition was 42% in experiment [4] and 41% in the experiment filed under Rattus norvegicus [5].

`COC(=O)C1C(OC(=O)c2ccccc2)CC2CCC1N2CCO` (centres undefined): the figures for the Ki (in experiment [1]; in the experiment filed under Rattus norvegicus [2]) were 0.7 µM and 1.6 µM, respectively.

On to `COC(=O)CN1C2CCC1C(C(=O)OC)C(OC(=O)c1ccccc1)C2` (centres undefined), for which the Ki in experiment [1] is 0.48 µM; in the experiment listed under Rattus norvegicus [2], 1.6 µM.

As usually defined, the Ki is a measure of affinity in units of concentration, obtained from inhibition or displacement. High values mean a looser hold on the target, low ones a stronger hold on the target. A word on the inhibition: it is how much of the control response was suppressed. Low readings indicate a weak effect, high ones a strong effect.
